According to article PMC10650714, “Double Attack to Oxidative Stress in Neurodegenerative Disorders: MAO-B and Nrf2 as Elected Targets” (Molecules, 2023):
Entries after “also recorded” stand apart in the source; their conditions may differ. Like-named read-outs stand apart in the source and are kept apart here.

Experiments:
recombinant hMAO-A = molecular target: T1, recombinant hMAO-A (Homo sapiens, UniProt P21397); assay: hMAO-A activity assay (kynuramine, fluorimetric); type: biochemical
T1 construct: purchased Fluka-Sigma-Aldrich s.r.l; (Italy); host or cells: Baculovirus infected BT1 cells
T1 sequence (P21397 1-527): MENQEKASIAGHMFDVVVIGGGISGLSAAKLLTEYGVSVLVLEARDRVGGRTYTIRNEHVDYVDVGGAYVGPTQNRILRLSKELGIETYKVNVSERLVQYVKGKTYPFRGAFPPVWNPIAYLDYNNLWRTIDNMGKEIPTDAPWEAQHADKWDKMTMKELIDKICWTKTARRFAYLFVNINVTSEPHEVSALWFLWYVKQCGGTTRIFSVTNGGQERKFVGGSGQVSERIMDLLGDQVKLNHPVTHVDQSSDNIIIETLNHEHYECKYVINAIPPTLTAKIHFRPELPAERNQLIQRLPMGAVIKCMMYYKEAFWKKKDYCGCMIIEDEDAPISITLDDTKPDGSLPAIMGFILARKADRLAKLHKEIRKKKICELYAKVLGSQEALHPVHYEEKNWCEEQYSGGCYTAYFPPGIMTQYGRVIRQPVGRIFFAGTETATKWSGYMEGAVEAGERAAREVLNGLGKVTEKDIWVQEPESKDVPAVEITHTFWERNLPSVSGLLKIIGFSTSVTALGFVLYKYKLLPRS
Procedure: Human recombinant hMAO-A and hMAO-B expressed in Baculovirus infected BT1 cells (5 mg/mL) and horseradish peroxidases were purchased from Fluka-Sigma-Aldrich s.r.l. (Italy). A Cary Eclipse fluorimeter (Varian Inc., Palo Alto, CA, USA) was used for fluorescence measurements. […] At first, the peroxidase-coupled continuous assay that detect the H2O2 generation rate was considered. It uses the Amplex Red reagent as the fluorogenic substrate for horseradish peroxidase.
By applying this method, hMAO activity assays were performed in K/Pi 0.1 M, EDTA 1 mM (total volume: 200 μL; pH 7.4, T = 37 °C), in the presence and in absence of various concentrations of the different compounds (0.2–20 μM and 2–50 μM in the case of hMAO–B and hMAO-A, respectively).
MAOs stock solutions were diluted with assay buffer in the presence or absence of the tested compound to obtain a final concentration of 0.005 mg/mL for MAO-A and 0.010 mg/mL for MAO-B; then, kynuramine (10–300 μM final concentration) was added to the assay solution. After 45–60 min of incubation at 37 °C, the reaction was stopped by the addition of 2 M NaOH (80 μL) and 480 μL of distilled water. Kynuramine deaminated by MAO spontaneously cyclizes to provide 4-hydroxyquinoline, the amount of which was determined by the fluorescence intensity of the peak of its emission spectra (λexc = 330 nm and λem 330–530 nm). Then, the rate of reaction was calculated using a specific calibration curve (in the presence of the same amount of the tested compound) built with the standard 4-hydroxyquinoline.
Under these experimental conditions, the Michaelis–Menten equation for rate of reaction, can be simplified as follows: V ≈ (Vmax/KM) [E]0[S]0 [49]. In the presence of an inhibitor, one or both the kinetic parameters, KM and Vmax, might be affected by its presence, depending on the inhibition mechanism. In particular, in the presence of a reversible inhibitor, both the kinetic parameters could be affected, and the apparent kinetic parameter would then become: KM I = KM,0 (1 + [I]/Ki)/(1 + [I]/(αKi)), and VmaxI = Vmax0/(1 + [I]/(αKi)), where α is the factor indicating how much the dissociation constant of the enzyme-substrate-I complex is different from that of the enzyme–I complex (also named Ki). Consequently, the ratio of the initial rate of reaction in the absence (Vo) and in the presence (VI) of the tested compound (Vo/VI) can be simplified to the ratio of (Vmax/KM)o/(Vmax/KM)I ≈ (1 + [I]/Ki).
To study the mechanism of inhibition, the steady-state kinetic parameters (Vmax and Km) of MAO-A and MAO-B were determined by performing experiments at different substrate concentrations and in the absence and presence of different concentrations of the tested compound. Vmax and Km were calculated by fitting the Michaelis–Menten equation to the experimental data (initial rate of reactions vs. substrate concentrations), with Sigma Plot software, version 9.0 (Jandel Scientific, San Rafael, CA, USA).

[1] = system: Nrf2 nuclear translocation in SH-SY5Y cells; assay: Nrf2 nuclear translocation (Western blot of nuclear extracts); type: cell-based, human
Text: In physiological conditions, the repressor Keap1 traps Nrf2 at the cytosolic level, preventing the activation of Nrf2 pathway. The disruption of Keap1–Nrf2 interaction allows for Nrf2 nuclear translocation, thus resulting in the transcriptional activation of its target cytoprotective genes. […] We and others have previously developed several compounds bearing caffeic and ferulic fragments able to activate Nrf2 in terms of the up-regulation of Nrf2 expression, translocation into the nucleus and induction of the Nrf2-dependent defensive genes, with (pro)electrophilic features emerging as key players. Herein, to analyse the effect of the new molecules on the Nrf2 downstream cascade, the ability of compounds 1–5 to increase Nrf2 nuclear translocation was preliminary evaluated as a pivotal step in Nrf2 signalling activation (Figure 6). Based on MAO-B inhibitory potency and cell toxicity assay, compounds were studied in SH-SY5Y human neuroblastoma cells at the concentration of 5 μM. Given the high structural analogy with our derivatives, we selected the well-known Nrf2 inducer CAPE [37, 38] as the reference compound, and verified its ability to induce Nrf2 nuclear translocation at different concentrations, ranging from 5 µM to 50 µM in our experimental model (Figure S6). Nrf2 nuclear content was assessed via Western blot analysis. […] Consistently, data from literature highlight discrepancies about pioglitazone-mediated Nrf2 activation, indicating its ability to activate Nrf2 in longer timeframes and different in vitro and in vivo experimental conditions. […] The preliminary docking performed on human Keap-1 confirms the excellent positioning of compound 2 within the BTB domain pocket, where cysteine 151 is located (see Figure S5). […] Particularly, all these new molecules hold the characteristic (pro)electrophilic fragments, which however, in this case, resulted to be insufficient to activate Nrf2, as reported for other ferulic and caffeic derivatives. In this regard, optimal target interaction might play a major role, but further biological investigations are needed to fully clarify the mechanism of Nrf2 activation and the effect on the downstream expression of cytoprotective genes.
SH-SY5Y cells (5 × 106) were seeded in […] dishes and treated for 3 h with 5 μM compounds; afterward, the medium was removed, and cells were washed twice with ice-cold PBS. Cells were subsequently homogenized 15 times using a glass−glass Dounce homogenizer in 0.32 M sucrose, buffered with 20 mM Tris- HCl (pH 7.4), containing 2 mM EDTA, 0.5 mM EGTA, 50 mM β-mercaptoethanol and 20 μg/mL leupeptin, apotrinin and pepstatin. The homogenate was centrifuged at 300× g for 5 min to obtain the nuclear fraction. An aliquot of the nuclear fraction was used for protein assay via the Bradford method, whereas the remaining was boiled for 5 min after dilution with sample buffer and subjected to polyacrylamide gel electrophoresis and immunoblotting, as described.

[2] = kynuramine [S] = 10 µM, pH 7.4, 37 °C, mean ± S.D., read-out: hMAO-A Ki

Question: What does the source list for `O=C(/C=C/c1ccc(O)c(O)c1)OCCc1ccccc1` [CAPE, caffeic acid phenethyl ester, reference compound]?
Answer: Ki (recombinant hMAO-A): 12 ± 2 µM; Nrf2 nuclear translocation ([1]; 5 µM and 20 µM, 3 h): induced Nrf2 nuclear translocation

Question: `O=C(/C=C/c1ccc(O)c(O)c1)Oc1ccc(CC2SC(=O)NC2=O)cc1` (stereo not drawn) [Compound 2, 4-((2,4-Dioxothiazolidin-5-yl)methyl)phenyl (E)-3-(3,4-Dihydroxyphenyl)acrylate] was tested. Which Ki (recombinant hMAO-A; [2]) did it give?
Answer: The Ki was 35 ± 4 µM.

Question: What about the Nrf2 nuclear translocation ([1]; 5 μM, 3 h) of the same compound?
Answer: Its Nrf2 nuclear translocation is “most active; also recorded: strongly induced Nrf2 translocation into the nucleus”.

Question: Which Ki (recombinant hMAO-A; [2]) does the source give for `CCc1ccc(CCOc2ccc(CC3SC(=O)NC3=O)cc2)nc1` (stereo not drawn) [Pioglitazone, reference compound] here?
Answer: Its Ki is greater than 100 µM.

Question: What about the Nrf2 nuclear translocation ([1]; until concentrations higher than 50 µM) of the same compound?
Answer: Its Nrf2 nuclear translocation is “not able to induce Nrf2 nuclear translocations”.
